Patent US8530457B2, “Method for the treatment of lymphangioleiomyomatosis (LAM)” (Fox Chase Cancer Center, priority 2008, dated 2013)
“Also recorded” adds a separate entry of the source.

Legend:
[1] = tested on: p42/44 MAPK; experiment: Immunoblot of phosphorylated p42/44 MAPK in ELT3 cells; format: cell-based, rat
Experimental: Prior to the in vitro experiments, cells were maintained in media supplemented with 10%-charcoal-stripped FBS for three days and then serum starved for 24 hours in serum-free and phenol red-free medium. E2 (10 nM, Sigma, St. Louis, Mo.) or PD98059 (50 μM, Cell Signaling Technology, Danvers, Mass.) was added to the cells as indicated.
(§1) Cells were rinsed once in ice-cold PBS and lysed in PTY buffer (50 mM Hepes, pH 7.5, 50 mM NaCl, 5 mM EDTA, 50 mM NaF, 10 mM Na4P2O7, and 1% Triton 100) supplemented with phosphatase inhibitors. Lysates were resolved by SDS-PAGE electrophoresis and transferred onto Immobilon P membranes (Millipore). Cytoplasmic and nuclear fractions were separated using CellLytic Nuclear Extraction Kit (Sigma) before electrophoresis. […] Western blots were developed using horseradish peroxidase-conjugated secondary antibodies and ECL chemiluminescence (Amersham Biosciences).

[2] = tested on: ELT3 cells; experiment: Anoikis assay of ELT3 cells on PolyHEMA (caspase-3, DNA fragmentation, Bim, regrowth); format: cell-based, rat
Experimental: as §1
ELT3 cells were cultured with or without 10 nM E2 in serum-free and phenol red-free medium supplemented with 10% charcoal-stripped FBS for 24 hours. […] Cell death as a function of DNA fragmentation was detected using Cell Death Detection ELISA kit (Roche Diagnostics).
(§2) The surviving cells in suspension were plated in triplicate in 24-well plates and allowed to grow adherently for 24 hours. ^3H-thymidine (1 μCi) was added to the media and the cells were incubated at 37° C. for 6 hours, washed with PBS, and lysed in 0.5 mL of 0.5 N NaOH plus 0.5% SDS. ^3H-thymidine incorporation was measured by scintillation counting.

[3] = tested on: ribosomal protein S6; experiment: Immunoblot of phosphorylated ribosomal protein S6 in ELT3 cells; format: cell-based, rat; conditions: E2 stimulation
Experimental: (§3) ELT-3 cells (Eker rat uterine leiomyoma-derived smooth muscle cells) were cultured in IIA complete medium (DMEM/F12 basal media including 15% FBS, 0.2 μM hydrocortisone, 10 μU/mL vasopressin, 1×FeSO4, 10 ng/mL EGF, 1×ITS, 0.01 nM triiolythryonine, 0.12% sodium bicarbonate, 1× cholesterol and 1× penicillin/streptomycin) supplemented with 15% FBS. Prior to the in vitro experiments, cells were maintained in media supplemented with 10%-charcoal-stripped FBS for three days and then serum starved for 24 hours in serum-free and phenol red-free medium. E2 (10 nM, Sigma, St. Louis, Mo.) or PD98059 (50 μM, Cell Signaling Technology, Danvers, Mass.) was added to the cells as indicated.
(§4) Cells were rinsed once in ice-cold PBS and lysed in PTY buffer (50 mM Hepes, pH 7.5, 50 mM NaCl, 5 mM EDTA, 50 mM NaF, 10 mM Na4P2O7, and 1% Triton 100) supplemented with phosphatase inhibitors. Lysates were resolved by SDS-PAGE electrophoresis and transferred onto Immobilon P membranes (Millipore). Cytoplasmic and nuclear fractions were separated using CellLytic Nuclear Extraction Kit (Sigma) before electrophoresis. […]

[4] = tested on: C-Raf; experiment: Immunoblot of phosphorylated C-Raf/Raf-1 in ELT3 cells; format: cell-based, rat; conditions: E2 stimulation
Experimental: as §3, §4

[5] = tested on: ELT3 cells; experiment: ELT3 cell proliferation in response to E2, 3H-thymidine incorporation; format: cell-based, rat; conditions: day 5, E2 treatment vs control
Experimental: as §3
as §2, with “counting. […]” for “counting.”

[6] = tested on: tuberin-deficient ELT3 cells; experiment: Subcutaneous ELT3 xenograft in CB17-scid mice: primary tumors and pulmonary metastases; format: in vivo
Experimental: (§5) All animal work was performed in accordance with a protocol approved by the FCCC Institutional Animal Care and Use Committee. Male CB-17 scid mice, six weeks of age, were purchased from Fox Chase Cancer Center. Female ovariectomized CB17-scid mice, six to eight weeks of age, were purchased from Taconic (Hudson, N.Y.). One week prior to cell injection, 17-beta estradiol or control-placebo pellets (2.5 mg, 90-day release) (Innovative Research America, Sarasota, Fla.) were implanted. For xenograft tumor establishment, subconfluent ELT3 cells were harvested, washed in PBS, and resuspended in 0.2 ml of serum-free medium. Two millions ELT3 cells were injected into both flanks of the mouse subcutaneously. For metastatic and circulating tumor cells assays, 2×10^5 ELT3 or ELT3-Luc cells were resuspended in 0.1 ml PBS and injected into the lateral tail vein of mice. Lung metastases were scored from 3-5 five-micron H&E stained sections of each lobe at 40× magnification by observers blinded to the experimental conditions.
CI-1040 (PD184352) was obtained from Pfizer (Ann Arbor, Mich.) and was prepared in a vehicle of 10% Cremophore EL (Sigma), 10% ethanol and 80% water. RAD001 was obtained from Novartis Pharma AG (Basel, Switzerland) and was diluted in double-distilled water. Drug were administered one day post cell inoculation at the following doses: RAD001 (4 mg/kg/day, gavage); CI-1040, (150 mg/kg/day gavage, twice a day)
Subcutaneous tumors were removed from animals upon sacrifice. Tumor weights were recorded, and tumor size was measured in two dimensions with calipers.
ELT3 cells were inoculated subcutaneously into the flanks of ovariectomized CB17-SCID mice, which were supplemented 1 week before with either placebo or E2 pellets (2.5 mg, 90-day release). Tumors arose in 100% of both estrogen and placebo-treated mice. […] The proliferative potential of ELT3 cells in vivo was examined using Ki-67 immunoreactivity.

[7] = tested on: ELT3 cells; experiment: Circulating and lung tumor cell DNA by rat-specific real-time PCR; format: in vivo, mice
Experimental: as §5, with “For metastatic and circulating tumor cells assays, 2×10^5 ELT3 or ELT3-Luc cells were resuspended in 0.1 ml PBS and injected into the lateral tail vein of mice.” left out
Mouse blood (0.5 mL) was collected at indicated times by intraocular bleed, and red blood cells were lysed before DNA extraction. At death, the lungs were dissected and stored at −80° C. for DNA extraction. Rat and mouse DNAs were quantified by using TaqMan-chemistry based real-time PCR assays. […] The primers amplify a LINE repeat element (AC087102). The assay for mouse is for the gene Anf. The sequences (all 5′ to 3′) for the primers and probes are:
PCR master mix from Eurogentec was used for PCR. Primers and probe concentrations were 500 and 100 nM, respectively. Cycling conditions were 95° C., 15 minutes followed by 40 (2-steps) cycles (95° C., 15 sec; 60° C., 60 sec). Reactions were run using an ABI 7900 HT instrument. Each sample was analyzed using two different amounts of input DNA. […] Bioluminescent Reporter Imaging

[8] = tested on: p42/44 MAPK; experiment: Phospho-p42/44 MAPK immunostaining of primary xenograft tumors; format: in vivo, mice; conditions: placebo 28%
Experimental: Sections were deparaffinized, incubated overnight with primary antibodies at 4° C. in a humidified chamber and then rinsed and incubated with biotinylated secondary antibodies for 30 minutes at room temperature. Slides were developed using the Broad Spectrum AEC Histostain-Plus (Invitrogen) or Histostain-Plus kit (Invitrogen), and they were counterstained with Gill's hematoxylin.
as §5

[9] = tested on: ELT3-luciferase cells; experiment: Lung colonization of i.v. injected ELT3-luciferase cells, bioluminescent imaging; format: in vivo, mice
Experimental: as §5, with “For metastatic and circulating tumor cells assays, 2×10^5 ELT3 or ELT3-Luc cells were resuspended in 0.1 ml PBS and injected into the lateral tail vein of mice.” left out
One million ELT3 cells were transfected with 3 μg of pCMV-Luc (Invitrogen, Carlsbad, Calif.) using Nucleofection reagent (Amaxa, Gaithersburg, Md.). Cells were selected in G418 for 2 weeks, and G418 resistant clones were isolated and examined for luciferase activity.
Ten minutes prior to imaging, animals were injected with luciferin (Xenogen, Alameda, Calif.) (120 mg/kg, i.p.). Bioluminescent signals were recorded at indicated times post cell injection using Xenogen IVIS System (Xenogen). Total photon flux at the chest regions and from the dissected lungs was analyzed.

[10] = female mice, subset n=4 with primary tumors of similar size
[11] = RAD001 4 mg/kg/day by gavage, 5 days per week, in the presence of estrogen or placebo

COc1cccc(-c2cc(=O)c3ccccc3o2)c1N [PD98059]
E2-induced phosphorylation of p42/44 MAPK ([1]; pretreatment with PD98059 (50 μM)): blocked
phosphorylation of S6K ([2]; 1 h after detachment): decreased
E2-enhanced survival (3H-thymidine incorporation after replating) ([2]; 24 h on PolyHEMA then replated, PD98059 treatment): blocked
estrogen's inhibition of Bim accumulation and caspase-3 cleavage ([2]; preincubation, after 4 h in detachment conditions): partially blocked

17β-estriadiol [E2]
time to induced phosphorylation of p42/44 MAPK ([1]; 10 nM E2): ≤ 15 min
time to nuclear translocation of phospho-MAPK ([1]; nuclear and cytoplasmic fractions): ≤ 5 min
mTOR activation as measured by ribosomal protein S6 phosphorylation [3]: does not affect
DNA fragmentation ([2]; 10 nM E2, PolyHEMA, at 1 and 24 h, ELISA): significantly reduced
caspase-3 cleavage ([2]; 10 nM E2, PolyHEMA, at 6, 16 and 24 h): reduced
3H-thymidine incorporation after replating ([2]; 24 h on PolyHEMA, 24 h after replating on adherent plates): significant increase
accumulation of Bim ([2]; after 1 h in detachment conditions): decreased
phosphorylation of S6K and S6 ([2]; detachment conditions, E2 stimulation): did not change
time to increased phosphorylation of C-Raf at Ser-338 [4]: ≤ 2 min
increase in 3H-thymidine incorporation [5]: 2.8 fold
average number of pulmonary metastases, size-matched subset [6, 10]: 6 metastases/mouse
mice that developed pulmonary metastases, size-matched subset [6, 10]: Three
primary tumor size, size-matched subset [6, 10]: 198±20 mm^2
tumor size relative to placebo-treated animals ([6]; male mice, 8 weeks post-cell inoculation): 2.9 fold
average number of pulmonary metastases ([6]; male mice, 8 weeks post-inoculation): 14 metastases/mouse
mice with pulmonary metastases ([6]; male mice, 8 weeks post-inoculation, 10 of 10): 100%
mice in which tumors arose ([6]; ovariectomized female CB17-SCID mice, E2 pellets 2.5 mg 90-day release): 100%
average number of pulmonary metastases ([6]; ovariectomized female mice): 15 metastases/mouse
mice with pulmonary metastases ([6]; ovariectomized female mice, 5 of 9): 56%
mean tumor area ([6]; ovariectomized female mice, post-inoculation week 8): 287±43 mm^2
number of Ki-67 positive cells in tumors, higher than placebo ([6]; xenograft tumors, female mice, vs placebo-treated tumors): 17%
increase in circulating cells ([7]; 6 h after i.v. injection of 2×10^5 ELT3 cells, vs placebo): 2.5 fold
increase in lung seeding of ELT3 cells ([7]; lungs 24 h after i.v. injection, vs placebo): 2 fold
amount of circulating tumor cell DNA vs placebo ([7]; xenograft mice, 7 weeks post-cell inoculation, tumors of similar size): striking increase
percentage of cells with primarily nuclear phospho-MAPK [8]: 65%
bioluminescence in chest regions, higher than placebo ([9]; 3 h post-cell injection): 2 fold
bioluminescence in chest regions, higher than placebo ([9]; 24 h post-cell injection): 5 fold

O=C(NOCC1CC1)c1ccc(F)c(F)c1Nc1ccc(I)cc1Cl [CI-1040, 2-(2-chloro-4-iodo-phenylamino)-N-cyclopropylmethoxy-3,4-difluoro-benzamide]
tumor formation ([6]; CI-1040 150 mg/kg/day by gavage, twice a day, not statistically significant): delayed
reduction of the size of primary tumors ([6]; E2 animals, CI-1040 150 mg/kg/day by gavage, not statistically significant): 25%
lung metastases ([6]; mice treated with E2 plus CI-1040 150 mg/kg/day by gavage, 150 mg/kg/day): no lung metastases were detected; also recorded: completely blocked
reduction of levels of circulating ELT3 cells in the blood ([7]; E2-treated xenograft animals, CI-1040 150 mg/kg/day by gavage): 84%
decrease of bioluminescence in chest regions, E2 plus CI-1040 vs E2 ([9]; 5 h post-cell injection): 55%
reduction of bioluminescent signals in ex vivo lungs, E2 plus CI-1040 vs E2 ([9]; 60 h post-cell injection): 96%

CO[C@H]1C[C@@H]2CC[C@@H](C)[C@@](O)(O2)C(=O)C(=O)N2CCCC[C@H]2C(=O)O[C@H]([C@H](C)C[C@@H]2CC[C@@H](OCCO)[C@H](OC)C2)CC(=O)[C@H](C)/C=C(\C)[C@@H](O)[C@@H](OC)C(=O)[C@H](C)C[C@H](C)/C=C/C=C/C=C/1C [RAD001]
lung metastasis [6, 11]: completely blocked
primary tumor development [6, 11]: completely blocked
